# Source: EP0076713B1, “Aminomethyl-1H-indole-4-methanol derivatives and their salts, process and intermediates for their preparation, their use as medicines and compositions containing them” (ROUSSEL-UCLAF, priority 1981, dated 1983)
# Counter-ions that a name gives are not always drawn.
# Columns and labels:
# Format in all cases: in vivo
# souris = experiment: Acute toxicity, oral administration in mice
# From the text: On a évalué les doses létales DLo des différents composés testés après administration par voie orale chez la souris.
# On apelle DLo la dose maximale ne provoquant aucune mortalité en 8 jours.
# [1] = test system: rats mâles de souche WISTAR; experiment: Hypotensive activity in anaesthetised rats (carotid arterial pressure, intravenous administration); settings: relative to initial control pressure
# Experimental: A) Détermination de l'activité hypotensive L'activité hypotensive a été étudiée sur des rats mâles de souche WISTAR pensant 300 g environ et anesthésiés au nembutal (50 mg/kg par voie intraveineuse).
# Le produit testé a été administré par voie intraveineuse dans la veine jugulaire.
# La pression artérielle carotidienne a été mesurée avant et après administration du produit testé.
# Le tableau ci-après indique les variations exprimées en pourcentage de la pression artérielle après administration du produit testé par rapport à la pression artérielle témoin initiale: […]
# [2] = test system: rats mâles spontanément hypertendus (souche Okamoto); experiment: Antihypertensive activity in spontaneously hypertensive rats (tail arterial pressure, oral administration); settings: 1 mg/kg oral, relative to initial control pressure; for Variation % de la pression arterielle 1 heure après l'administration: 1 hour; for Variation % de la pression arterielle 4 heures après l'administration: 4 hours
# From the text: L'action antihypertensive a été étudiée sur des rats mâles spontanément hypertendus (souche Okamoto) âgés de 20 semaines pesant 300 à 320g.
# Le produit a été administré par voie orale 48 heures après la pose d'un cathéter intracarotidien.
# La pression artérielle a été mesurée à la queue du rat au moyen d'un manchon pneumatique et à l'aide d'un transducteur piezo-électrique de pression. La pression a été mesurée avant et une heure, quatre heures et vingt-quatre heures après l'administration du produit.
# Le tableau ci-après indique les variations exprimées en pourcentages de la pression artérielle, après administration du produit, par rapport à la pression témoin initiale.
# [3] = test system: ulcéres au niveau de l'estomac, par ligature du pylore; experiment: Antiulcer activity, Shay technique (gastric ulcers induced by pylorus ligation); settings: pylorus-ligated rats, about 16 hours after treatment
# From the text: La technique utilisée est décrite par SHAY et al dans Gastroenterology, 5, 43 (1945).
# La technique de SHAY consiste à induire chez ez des rats des ulcéres au niveau de l'estomac, par ligature du pylore.
# Les animaux sont anesthésiés à l'éther. Une incision longitudinale est faite 1 cm environ au-dessous du sternum, la partie glandulaire de l'estomac et le duodénum sont mis à jour et une ligature est posée quelques mm au-dessous du pylore. Le plan musculaire est laissé tel quel et la peau est suturée par deux agrafes.
# Les animaux reçoivent aussitôt après le dispersif ou la substance à étudier, par voie buccale, sous un volume de 0,5 ml/100 g, et sont maintenus sans nourriture ni boisson, jusqu'au sacrifice par saignée carotidienne qui a lieu environ 16 heures après le traitement.
# Avant de prélèver l'estomac, une ligature est possé au-dessus du cardia.
# Le liquide gastrique est recueilli afin d'en mesure le pH.
# L'estomac est ensuite ouvert selon la grande courbure, rincé dans le sérum physiologique et étalé sur du papier millimétrique pour être examiné sous la loupe binoculaire.
# On évalue macroscopiquement la gravité des lésions qui est côtée de 0 à 4 pour chaque estomac.
# On détermine pour chaque lot de rat, l'intensité moyenne des ulcérations et on calcule la protection en rapportant l'index moyen du groupe à l'index moyen du groupe témoin.
# On détermine également les valeurs de pH du liquide gastrique pour les animaux traités et les animaux témoins.
# [4] = oral, mice, maximal dose causing no mortality in 8 days
# [5] = dose −0,1 mg/kg [sic], intravenous
Compound,"DLo (souris; mouse, in vivo, po, 11520 min) [mg/kg]",Variation % de la pression arterielle 1 minute après l'administration ([1]; 1 mg/kg intravenous) [%],Variation % de la pression arterielle 5 minutes après l'administration ([1]; 1 mg/kg intravenous) [%],Variation % de la pression arterielle 10 minutes après l'administration ([1]; 1 mg/kg intravenous) [%],Variation % de la pression arterielle 30 minutes après l'administration ([1]; 1 mg/kg intravenous) [%],Variation % de la pression arterielle 1 minute après l'administration ([1]; 10 mg/kg intravenous) [%],Variation % de la pression arterielle 5 minutes après l'administration ([1]; 10 mg/kg intravenous) [%],Variation % de la pression arterielle 10 minutes après l'administration ([1]; 10 mg/kg intravenous) [%],Variation % de la pression arterielle 30 minutes après l'administration ([1]; 10 mg/kg intravenous) [%],DLo (souris; [4]) [mg/kg],"Variation % de la pression arterielle 10 minutes après l'administration ([1]; 0,1 mg/kg intravenous) [%]","Variation % de la pression arterielle 1 minute après l'administration ([1]; 0,1 mg/kg intravenous) [%]","Variation % de la pression arterielle 5 minutes après l'administration ([1]; 0,1 mg/kg intravenous) [%]","Variation % de la pression arterielle 30 minutes après l'administration ([1]; 0,1 mg/kg intravenous) [%]",other results
"OC(CNCCc1ccccc1)c1cccc2[nH]ccc12 (centres unmarked) [Exemple 9, Oxalate acidede 1'a-[[(2-phényléthyl)amino]méthyl]-1 H-indole-4-méthanol]",80,−13,−11,−4,−3,−48,−44,−37,−33,–,–,–,–,–,–
"CNCC(O)c1cccc2[nH]ccc12 (centres unmarked) [Exemple 3, a-(méthylamino)méthyl-1 H-indole-4-méthanol]",–,–,–,–,–,–,–,–,–,600,−5,–,–,–,"Variation % de la pression arterielle 1 minute après l'administration [1, 5]: +19%; Variation % de la pression arterielle 5 minutes après l'administration [1, 5]: −4%; Variation % de la pression arterielle 30 minutes après l'administration [1, 5]: −9%"
"OC(CNCc1ccccc1)c1cccc2[nH]ccc12 (centres unmarked) [Exemple 8, Oxalate acidede 1'a[[(phénylméthyl)amino]méthyl]-1 H-indole-4-méthanol]",–,−9,−8,−6,−10,−38,−21,−21,−15,100,–,–,–,–,–
oxalate neutre de 1'a-[[(1-éthylpropyl)amino]méthyl]-1 H-indole-4-méthanol [Exemple 7],80,–,–,–,–,−59,−56,−50,−35,–,–,–,–,–,–
"CNCC(O)c1cccc2c1CCN2 (centres unmarked) [Exemple 6, a-(méthylamino)métyl-2,3-dihydro-1 H-indole-4-méthanol]",–,–,–,–,–,–,–,–,–,> 400,–,–,–,–,–
"OC(CNCC(O)c1cccc2[nH]ccc12)COc1ccccc1 (centres unmarked) [Exemple 10, a-[[(2-hydroxy-3-phénoxy-propyl)amino]méthyl]-1H-indole-4-méthanol]",> 400,−32,−14,−15,−13,–,–,–,–,–,–,–,–,–,–
Oxalate neutre de 1'a[[(1-méthyléthyl)amino]méthyl]-1H-indole-4-méthanol [Exemple 2],200,−41,−38,−29,−20,–,–,–,–,–,−30,−36,−28,−27,Variation % de la pression arterielle 1 heure après l'administration [2]: −22%; Variation % de la pression arterielle 4 heures après l'administration [2]: −21%
"CCCNCC(O)c1cccc2[nH]ccc12 (centres unmarked) [Exemple 11, Oxalatede 1'a[[(1-propyl)amino]méthyl]-1H-indole-4-méthanol]",–,−22,−33,−33,−30,–,–,–,–,100,−12,−11,−12,−13,"Ulcération % de protection par rapport aux témoins ([3]; 1 mg/kg oral): 48%; pH du liquide gastrique animaux traités ([3]; 1 mg/kg oral, controls pH 3,3): 3,2; Ulcération % de protection par rapport aux témoins ([3]; 5 mg/kg oral): 63%; pH du liquide gastrique animaux traités ([3]; 5 mg/kg oral, controls pH 3,0): 2,9"
"NCC(O)c1cccc2[nH]ccc12 (stereo not drawn) [Exemple 1, Fumaratede 1α-(aminométhyl)-1H-indole-4-méthanol]",–,–,–,–,–,–,–,–,–,>1000,–,–,–,–,–
"CC(C)NCC(O)c1cccc2c1CCN2 (stereo not drawn) [Exemple 5, α-[[(1-méthyléthyl)amino]méthyl]2,3-dihydro-1H-indole-4-méthanol]",–,−20,−19,−17,−14,–,–,–,–,200,−26,−24,−28,−22,"Ulcération % de protection par rapport aux témoins ([3]; 0,4 mg/kg oral): 60%; pH du liquide gastrique animaux traités ([3]; 0,4 mg/kg oral, controls pH 2,2): 2,5; Ulcération % de protection par rapport aux témoins ([3]; 0,08 mg/kg oral): 66%; pH du liquide gastrique animaux traités ([3]; 0,08 mg/kg oral, controls pH 2,2): 2,6; Ulcération % de protection par rapport aux témoins ([3]; 2 mg/kg oral): 90%; pH du liquide gastrique animaux traités ([3]; 2 mg/kg oral, controls pH 2): 2,6; Variation % de la pression arterielle 1 heure après l'administration [2]: −27%; Variation % de la pression arterielle 4 heures après l'administration [2]: −24%; Variation % de la pression arterielle 24 heures après l'administration ([2]; 24 hours): −17%"
